Measured values: patent publication US20140357487A1, “PLANTS HAVING INCREASED TOLERANCE TO HERBICIDES” (BASF SE, priority 2011, published 2014)

Target: T1, Arabidopsis HPPD (SEQ ID: 53) (Arabidopsis thaliana, UniProt P93836)
T1 construct: His6 (N); made in house; host or cells: E. coli BL21 (DE3)
T1 sequence (P93836 1-445): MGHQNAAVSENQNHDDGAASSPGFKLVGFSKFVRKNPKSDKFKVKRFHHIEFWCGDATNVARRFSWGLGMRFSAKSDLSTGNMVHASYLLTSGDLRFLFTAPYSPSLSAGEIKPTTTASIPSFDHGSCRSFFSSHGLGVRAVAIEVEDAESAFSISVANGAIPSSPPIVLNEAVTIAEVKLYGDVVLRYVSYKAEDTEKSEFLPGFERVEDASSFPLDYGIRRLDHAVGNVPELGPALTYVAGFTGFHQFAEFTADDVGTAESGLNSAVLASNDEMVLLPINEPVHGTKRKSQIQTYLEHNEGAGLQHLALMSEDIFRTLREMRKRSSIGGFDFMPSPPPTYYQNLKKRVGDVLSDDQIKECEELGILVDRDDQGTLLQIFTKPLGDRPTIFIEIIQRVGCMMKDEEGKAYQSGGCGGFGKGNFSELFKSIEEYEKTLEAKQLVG
Assay: HPPD activity assay, Arabidopsis wild-type HPPD
Assay type: biochemical
Design: key to Normalized tolerance index TI: tolerance index relative to Arabidopsis wild-type HPPD (= 1)
Settings: for Normalized tolerance index TI: normalized on Arabidopsis wild-type HPPD; for tolerance index TI: not normalized
Protocol: HPPD produces homogentisic acid and CO2 from 4-hydroxyphenylpyruvate (4-HPP) and O2. The activity assay for HPPD is based on the analysis of homogentisic acid by reversed phase HPLC.
The assay mixture can contain 150 mM potassium phosphate buffer pH 7.0, 50 mM L-ascorbic acid, 1 μM FeSO4 and 7 μg of purified enzyme in a total volume of 1 ml.
Inhibitors are dissolved in DMSO (dimethylsulfoxide) to a concentration of 20 mM or 0.5 mM, respectively. From this stock solution serial five-fold dilutions are prepared in DMSO, which are used in the assay. The respective inhibitor solution accounts for 1% of the assay volume. […] After a preincubation of 30 min the reaction is started by adding 4-HPP to a final concentration of 0.1 mM. The reaction is allowed to proceed for 120 min at room temperature. The reaction is stopped by addition of 100 μl of 4.5 M phosphoric acid.
Activities are normalized by setting the uninhibited enzyme activity to 100%. IC50 values are calculated using non-linear regression.
The assay mixture can contain 150 mM potassium phosphate buffer pH 7.0, 50 mM L-ascorbic acid, 100 μM Catalase (Sigma-Aldrich), 1 μM FeSO4 and 0.2 units of purified HPPD enzyme in a total volume of 505 μl. 1 unit is defined as the amount of enzyme that is required to produce 1 nmol of HGA per minute at 20° C.
Inhibitors are dissolved in DMSO (dimethylsulfoxide) to a concentration of 0.5 mM. From this stock solution serial five-fold dilutions are prepared in DMSO, which are used in the assay. The respective inhibitor solution accounts for 1% of the assay volume. […] Activities are normalized by setting the uninhibited enzyme activity to 100%. IC50 values are calculated using non-linear regression.
Using methods which are described in the above examples or well known in the art, purified, recombinant wildtype HPPD enzymes are characterized with respect to their kinetic properties and sensitivity towards HPPD inhibiting herbicides. Apparent michaelis constants (Km) and maximal reaction velocities (Vmax) are calculated by non-linear regression with the software GraphPad Prism 5 (GraphPad Software, La Jolla, USA) using a substrate inhibition model.
Field performance of the HPPD enzyme, which is used as a herbicide tolerance trait, may depend not only on its lack of sensitivity towards HPPD inhibiting herbicides but also on its activity. To assess the potential performance of a herbicide tolerance trait a tolerance index (TI) is calculated using the following formula: […]
Easy comparison and ranking of each trait is enabled by normalizing tolerance indexes on Arabidopsis wild-type HPPD.

[1] = Arabidopsis HPPD Wildtype, Table 15

SMILES | Ki [nM] | Normalized tolerance index TI [1] | Normalized tolerance index TI (Arabidopsis HPPD, Table 12) | tolerance index TI (Arabidopsis HPPD)
CC1(C)c2cccnc2C(O)=C(c2ccc(Cl)nc2Cl)S1(=O)=O [Inhibitor 2, 7-(2,6-dichloro-3-pyridyl)-5,5-dimethyl-6,6-dioxo-thiopyrano[4,3-b]pyridin-8-ol] | 4.2 | 1 | 1 | 4E−3
COCCOCc1c(Cl)ccc(C2=C(O)c3ncccc3C(C)(C)S2(=O)=O)c1Cl [Inhibitor 3, 7-[2,4-dichloro-3-(2-methoxyethoxymethyl)phenyl]-5,5-dimethyl-6,6-dioxo-thiopyrano[4,3-b]pyridin-8-ol] |  | 1 | 1 | 
CC1=NOC(c2c(Cl)ccc(C3=C(O)c4ncccc4C(C)(C)S3(=O)=O)c2Cl)C1 (stereo not shown) [Inhibitor 1, 7-[2,4-dichloro-3-(3-methyl-4,5-dihydroisoxazol-5-yl)phenyl]-5,5-dimethyl-6,6-dioxo-thiopyrano[4,3-b]pyridin-8-ol] | 4.1 | 1 | 1 | 4E−3
